Where a name gives a salt, the structure may show the parent alone. Read-outs that look alike come from different tables or passages of the source.
Target: T1, human HSD-1 (recombinant HSD-1) (Homo sapiens, UniProt P28845)
T1 construct: made in house
Experiment: HSD-1 activity inhibitory action in vitro (SPA, conversion of cortisone to cortisol)
Format: biochemical

[1] = recombinant human HSD-1 expressed using baculovirus system, 10 nM 3H cortisone, 500 μM NADPH, room temperature 90 to 120 min, read-out: hHSD1 (IC50 (nM))

T1 sequence (P28845 whole entry): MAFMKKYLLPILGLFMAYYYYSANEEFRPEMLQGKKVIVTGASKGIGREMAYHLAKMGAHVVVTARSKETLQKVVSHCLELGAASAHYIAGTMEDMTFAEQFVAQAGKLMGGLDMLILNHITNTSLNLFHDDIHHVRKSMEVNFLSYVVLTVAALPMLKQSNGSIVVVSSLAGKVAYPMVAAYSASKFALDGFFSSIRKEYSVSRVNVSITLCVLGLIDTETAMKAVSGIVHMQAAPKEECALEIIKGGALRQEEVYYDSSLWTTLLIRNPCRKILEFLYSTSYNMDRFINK

Row | Compound | IC50 [1] [nM] | IC50 [nM]
1 | CC(=O)NC1CCN(C(=O)N2CCC(n3ncc(C(=O)N4CC[C@@H](c5ccccc5C(F)(F)F)C4)c3C3CC3)CC2)CC1 [Example 39, 1-{1-[1-(4-acetylaminopiperidine-1-carbonyl)piperidin-4-yl]-5-cyclopropyl-1H-pyrazole-4-carbonyl}-[(S)-3-(2-trifluoromethylphenyl)]pyrrolidine] | < 30 | –
2 | CC(=O)NC1CCN(C(=O)N2CCC(n3ncc(C(=O)N4CC[C@@H](c5ccccc5C(F)(F)F)C4)c3C3CC3)CC2)C1 (stereo partly drawn) [Example 40, 1-{1-[1-(3-acetylaminopyrrolidine-1-carbonyl)piperidin-4-yl]-5-cyclopropyl-1H-pyrazole-4-carbonyl}-[(S)-3-(2-trifluoromethylphenyl)]pyrrolidine] | < 30 | –
3 | CN(C)C1CCN(C(=O)N2CCC(n3ncc(C(=O)N4CC[C@@H](c5ccccc5C(F)(F)F)C4)c3C3CC3)CC2)C1 (stereo partly drawn) [Example 41, 1-{5-cyclopropyl-1-[1-(3-dimethylaminopyrrolidine-1-carbonyl)piperidin-4-yl]-1H-pyrazole-4-carbonyl}-[(S)-3-(2-trifluoromethylphenyl)]pyrrolidine hydrochloride] | < 30 | –
4 | CN1CCC(NC(=O)N2CCC(n3ncc(C(=O)N4CC[C@@H](c5ccccc5C(F)(F)F)C4)c3C3CC3)CC2)CC1 [Example 42, 1-{5-cyclopropyl-1-[1-(1-methylpiperidin-4-yl-carbamoyl)piperidin-4-yl]-1H-pyrazole-4-carbonyl}-[(S)-3-(2-trifluoromethylphenyl)]pyrrolidine hydrochloride] | < 30 | –
5 | CC(=O)N1CCC(NC(=O)N2CCC(n3ncc(C(=O)N4CC[C@@H](c5ccccc5C(F)(F)F)C4)c3C3CC3)CC2)CC1 [Example 43, 1-{1-[1-(1-acetylpiperidin-4-yl-carbamoyl)piperidin-4-yl]-5-cyclopropyl-1H-pyrazole-4-carbonyl}-[(S)-3-(2-trifluoromethylphenyl)]pyrrolidine] | < 30 | –
6 | O=C1CCN(C(=O)N2CCC(n3ncc(C(=O)N4CC[C@@H](c5ccccc5C(F)(F)F)C4)c3C3CC3)CC2)CC1 [Example 44, 1-{5-cyclopropyl-1-[1-(4-oxopiperidine-1-carbonyl)piperidin-4-yl]-1H-pyrazole-4-carbonyl}-[(S)-3-(2-trifluoromethylphenyl)]pyrrolidine] | – | < 30
7 | CC(=O)NC1CN(C(=O)N2CCC(n3ncc(C(=O)N4CC[C@@H](c5ccccc5C(F)(F)F)C4)c3C3CC3)CC2)C1 [Example 45, 1-{1-[1-(3-acetylaminoazetidine-1-carbonyl)piperidin-4-yl]-5-cyclopropyl-1H-pyrazole-4-carbonyl}-[(S)-3-(2-trifluoromethylphenyl)]pyrrolidine] | < 30 | –
8 | O=C(NCC(F)(F)F)N1CCC(n2ncc(C(=O)N3CC[C@@H](c4ccccc4C(F)(F)F)C3)c2C2CC2)CC1 [Example 47, 1-{5-cyclopropyl-1-[1-(2,2,2-trifluoroethylcarbamoyl)piperidin-4-yl]-1H-pyrazole-4-carbonyl}-[(S)-3-(2-trifluoromethylphenyl)]pyrrolidine] | < 30 | –
9 | O=C(c1cnn(C2CCN(C(=O)N3CC(F)(F)C(F)(F)C3)CC2)c1C1CC1)N1CC[C@@H](c2ccccc2C(F)(F)F)C1 [Example 48, 1-{5-cyclopropyl-1-[1-(3,3,4,4-tetrafluoropyrrolidine-1-carbonyl)piperidin-4-yl]-1H-pyrazole-4-carbonyl}-[(S)-3-(2-trifluoromethylphenyl)]pyrrolidine] | < 30 | –
10 | CC(C)[C@@H](CO)NC(=O)N1CCC(n2ncc(C(=O)N3CC[C@@H](c4ccccc4C(F)(F)F)C3)c2C2CC2)CC1 [Example 49, 1-(5-cyclopropyl-1-{1-[(S)-1-hydroxymethyl-2-methylpropylcarbamoyl]piperidin-4-yl}-1H-pyrazole-4-carbonyl)-[(S)-3-(2-trifluoromethylphenyl)]pyrrolidine] | < 30 | –
11 | O=C(N[C@H](CO)Cc1ccccc1)N1CCC(n2ncc(C(=O)N3CC[C@@H](c4ccccc4C(F)(F)F)C3)c2C2CC2)CC1 [Example 50, 1-(1-{1-[(S)-1-benzyl-2-hydroxyethylcarbamoyl]piperidin-4-yl}-5-cyclopropyl-1H-pyrazole-4-carbonyl)-[(S)-3-(2-trifluoromethylphenyl)]pyrrolidine] | < 30 | –
12 | O=C(N[C@H](CO)c1ccccc1)N1CCC(n2ncc(C(=O)N3CC[C@@H](c4ccccc4C(F)(F)F)C3)c2C2CC2)CC1 [Example 51, 1-(5-cyclopropyl-1-{1-[(S)-2-hydroxy-1-phenylethylcarbamoyl]piperidin-4-yl}-1H-pyrazole-4-carbonyl)-[(S)-3-(2-trifluoromethylphenyl)]pyrrolidine] | < 30 | –
13 | CC(C)C[C@@H](CO)NC(=O)N1CCC(n2ncc(C(=O)N3CC[C@@H](c4ccccc4C(F)(F)F)C3)c2C2CC2)CC1 [Example 52, 1-(5-cyclopropyl-1-{1-[(S)-1-hydroxymethyl-3-methylbutylcarbamoyl]piperidin-4-yl}-1H-pyrazole-4-carbonyl)-[(S)-3-(2-trifluoromethylphenyl)]pyrrolidine] | < 30 | –
14 | O=C(Nc1ccccc1O)N1CCC(n2ncc(C(=O)N3CC[C@@H](c4ccccc4C(F)(F)F)C3)c2C2CC2)CC1 [Example 53, 1-{5-cyclopropyl-1-[1-(2-hydroxyphenylcarbamoyl)piperidin-4-yl]-1H-pyrazole-4-carbonyl}-[(S)-3-(2-trifluoromethylphenyl)]pyrrolidine] | < 30 | –
15 | O=C(NC1(CO)CCCC1)N1CCC(n2ncc(C(=O)N3CC[C@@H](c4ccccc4C(F)(F)F)C3)c2C2CC2)CC1 [Example 54, 1-{5-cyclopropyl-1-[1-(1-hydroxymethylcyclopentylcarbamoyl)piperidin-4-yl]-1H-pyrazole-4-carbonyl}-[(S)-3-(2-trifluoromethylphenyl)]pyrrolidine] | < 30 | –
16 | O=C(NS(=O)(=O)c1ccccc1)N1CCC(n2ncc(C(=O)N3CC[C@@H](c4ccccc4C(F)(F)F)C3)c2C2CC2)CC1 [Example 55, 1-[1-(1-benzenesulfonylaminocarbonylpiperidin-4-yl)-5-cyclopropyl-1H-pyrazole-4-carbonyl]-[(S)-3-(2-trifluoromethylphenyl)]pyrrolidine] | < 30 | –
17 | CS(=O)(=O)NC(=O)N1CCC(n2ncc(C(=O)N3CC[C@@H](c4ccccc4C(F)(F)F)C3)c2C2CC2)CC1 [Example 56, 1-[5-cyclopropyl-1-(1-methanesulfonylaminocarbonylpiperidin-4-yl)-1H-pyrazole-4-carbonyl]-[(S)-3-(2-trifluoromethylphenyl)]pyrrolidine] | < 30 | –
18 | COC(=O)N1CCC(n2ncc(C(=O)N3CC[C@@H](c4ccccc4C(F)(F)F)C3)c2C2CC2)CC1 [Example 57, 1-[5-cyclopropyl-1-(1-methoxycarbonylpiperidin-4-yl)-1H-pyrazole-4-carbonyl]-[(S)-3-(2-trifluoromethylphenyl)]pyrrolidine] | < 30 | –
19 | CN(C)CCOC(=O)N1CCC(n2ncc(C(=O)N3CC[C@@H](c4ccccc4C(F)(F)F)C3)c2C2CC2)CC1 [Example 59, 1-{5-cyclopropyl-1-[1-(2-dimethylaminoethoxycarbonyl)piperidin-4-yl]-1H-pyrazole-4-carbonyl}-[(S)-3-(2-trifluoromethylphenyl)]pyrrolidine hydrochloride] | < 30 | –
